Experimental data: the NIST ThermoML archive (doi:10.1016/j.jct.2014.01.006)

Tests used:
[1] = for molar entropy: Vacuum adiabatic calorimetry; for mass density: Vibrating tube method; for vapor or sublimation pressure: Ebulliometric method (Recirculating still)
[2] = molar heat capacity at saturation pressure; settings: Crystal, Vacuum adiabatic calorimetry

c1ccc(-c2cccc3ccccc23)cc1 [1-phenylnaphthalene]
[1]
Settings	Glass transition temperature [°C]	Triple point temperature [K]	mass density [kg/m3]	molar entropy [J/K/mol]	vapor or sublimation pressure [kPa]
5 K, Crystal	–	–	–	0.1746	–
10 K, Crystal	–	–	–	1.372	–
20 K, Crystal	–	–	–	7.849	–
30 K, Crystal	–	–	–	17.67	–
40 K, Crystal	–	–	–	28.64	–
50 K, Crystal	–	–	–	39.72	–
60 K, Crystal	–	–	–	50.49	–
70 K, Crystal	–	–	–	60.84	–
80 K, Crystal	–	–	–	70.76	–
90 K, Crystal	–	–	–	80.33	–
100 K, Crystal	–	–	–	89.56	–
120 K, Crystal	–	–	–	107.24	–
140 K, Crystal	–	–	–	124.19	–
160 K, Crystal	–	–	–	140.69	–
180 K, Crystal	–	–	–	156.93	–
200 K, Crystal	–	–	–	173.03	–
220 K, Crystal	–	–	–	189.11	–
240 K, Crystal	–	–	–	205.23	–
260 K, Crystal	–	–	–	221.4	–
280 K, Crystal	–	–	–	237.64	–
297.47 K, Crystal	–	–	–	251.92	–
297.47 K, Liquid	–	–	–	304.2	–
298.15 K, Liquid	–	–	–	304.91	–
300 K, Liquid	–	–	–	306.83	–
320 K, Liquid	–	–	–	327.32	–
323.14 K, Liquid	–	–	1082.7	–	–
340 K, Liquid	–	–	–	347.28	–
348.13 K, Liquid	–	–	1064.6	–	–
360 K, Liquid	–	–	–	366.78	–
373.12 K, Liquid	–	–	1045.5	–	–
375 K, Liquid	–	–	–	–	0.0218
380 K, Liquid	–	–	–	385.86	–
385 K, Liquid	–	–	–	–	0.0404
395 K, Liquid	–	–	–	–	0.0732
400 K, Liquid	–	–	–	404.57	–
405 K, Liquid	–	–	–	–	0.1265
415 K, Liquid	–	–	–	–	0.2126
420 K, Liquid	–	–	–	422.96	–
423.11 K, Liquid	–	–	1006.3	–	–
425.01 K, Liquid	–	–	–	–	0.3464
434.99 K, Liquid	–	–	–	–	0.549
440 K, Liquid	–	–	–	441.01	–
445 K, Liquid	–	–	–	–	0.849
448.11 K, Liquid	–	–	986.7	–	–
455 K, Liquid	–	–	–	–	1.283
460 K, Liquid	–	–	–	458.69	–
465 K, Liquid	–	–	–	–	1.896
466.36 K, Liquid	–	–	–	–	2
473.11 K, Liquid	–	–	967	–	–
475 K, Liquid	–	–	–	–	2.747
480 K, Liquid	–	–	–	476.01	3.281
485.69 K, Liquid	–	–	–	–	4.002
494.31 K, Liquid	–	–	–	–	5.336
498.11 K, Liquid	–	–	945	–	–
500 K, Liquid	–	–	–	493.05	–
507.13 K, Liquid	–	–	–	–	8.005
516.73 K, Liquid	–	–	–	–	10.67
520 K, Liquid	–	–	–	509.81	–
523.11 K, Liquid	–	–	921.4	–	–
524.52 K, Liquid	–	–	–	–	13.34
532.53 K, Liquid	–	–	–	–	16.64
539.27 K, Liquid	–	–	–	–	19.93
540 K, Liquid	–	–	–	526.33	–
548.1 K, Liquid	–	–	–	–	25.01
548.11 K, Liquid	–	–	–	–	25.02
557 K, Liquid	–	–	–	–	31.18
560 K, Liquid	–	–	–	542.62	–
565.96 K, Liquid	–	–	–	–	38.57
574.94 K, Liquid	–	–	–	–	47.36
580 K, Liquid	–	–	–	558.7	–
584.02 K, Liquid	–	–	–	–	57.82
593.13 K, Liquid	–	–	–	–	70.11
600 K, Liquid	–	–	–	574.57	–
602.33 K, Liquid	–	–	–	–	84.55
611.56 K, Liquid	–	–	–	–	101.34
620 K, Liquid	–	–	–	590.26	–
620.85 K, Liquid	–	–	–	–	120.8
630.2 K, Liquid	–	–	–	–	143.27
640 K, Liquid	–	–	–	605.78	–
650 K, Liquid	–	–	–	613.47	–
Crystal, Adiabatic calorimetry	–	297.47	–	–	–
Glass, Adiabatic calorimetry	-53	–	–	–	–

[2]
Settings	molar heat capacity [J/K/mol]
4.666 K	0.4324
5 K	0.5238
5.509 K	0.6901
6.425 K	1.131
7.372 K	1.671
8.352 K	2.37
9.357 K	3.243
10 K	3.899
10.42 K	4.348
11.58 K	5.512
12.87 K	7.134
14.3 K	8.921
15.89 K	11.19
17.68 K	13.76
19.66 K	16.7
20 K	17.2
21.86 K	20.01
24.3 K	23.71
26.97 K	27.69
29.93 K	31.88
30 K	31.97
33.23 K	36.31
36.92 K	40.94
40 K	44.47
41.05 K	45.63
45.65 K	50.63
50 K	54.82
50.77 K	55.5
56.48 K	60.59
57.01 K	60.79
57.98 K	61.8
